Data taken from patent US20200179302A1, “USE OF DIPHENOL IN PREPARATION OF MEDICINES FOR PREVENTION AND TREATMENT OF CEREBRAL ISCHEMIA” (XI'AN LIBANG PHARMACEUTICAL CO., LTD, priority 2016, published 2020).

Experiments:
[1] = system: rats with cerebral ischemic reperfusion injury; experiment: Cerebral ischemic reperfusion (MCAO, suture method) rat model; format: in vivo; conditions: for Relative cerebral infarction volume(%): 40 mg/kg i.v. 30 min before and 12 h after reperfusion, TTC
[2] = system: permanent cerebral ischemia model rats; experiment: Permanent cerebral ischemia (MCAO, suture method) rat model; conditions: for Fas average gray scale: gray scale inversely proportional to expression; for Relative cerebral infarction volume(%): 40 mg/kg i.v. 30 min before insertion of thread and 12 h after embolism, TTC
[3] = 40 mg/kg i.v., brain sections, TUNEL

SMILES | Relative cerebral infarct volume (%) ([1]; edaravone 3 mg/kg, 24 h after reperfusion) | Relative cerebral infarct volume (%) ([2]; edaravone 3 mg/kg, 24 h after embolism) | Fas average gray scale ([2]; edaravone 3 mg/kg, brain sections) | TNF-α content ([2]; edaravone 3 mg/kg, brain tissue homogenate) | Relative cerebral infarction volume(%) ([1]; 24 h after reperfusion) | Number of apoptotic cells [1, 3] | Fas average gray scale ([1]; 40 mg/kg i.v., brain sections, immunohistochemistry, gray scale inversely proportional to expression) | Relative cerebral infarction volume(%) ([2]; 24 h after embolism) | Number of apoptotic cells [2, 3] | Fas average gray scale ([2]; 40 mg/kg i.v., brain sections, immunohistochemistry)
CC1=NN(c2ccccc2)C(=O)C1 [Edaravone injection, edaravone] | 29.31 ± 3.95 % | 31.29 ± 4.02 % | 138.95 ± 5.50 | 5.53 ± 0.54 ng/mL |  |  |  |  |  | 
CC(=O)Oc1c(C(C)C)cc(-c2cc(C(C)C)c(O)c(C(C)C)c2)cc1C(C)C [Example 2, 4′-hydroxy-3,3′,5,5′-tetraisopropylbiphenyl-4-acetate] |  |  |  |  | 18.71 ± 4.69 % | 19.14 ± 4.24 | 162.47 ± 3.96 | 24.71 ± 3.76 % | 20.41 ± 5.02 | 158.28 ± 6.66
CC(=O)Oc1c(C(C)C)cc(-c2cc(C(C)C)c(OC(C)=O)c(C(C)C)c2)cc1C(C)C [Example 3, 3,3′,5,5′-tetraisopropylbiphenyl-4′-diacetate] |  |  |  |  | 23.22 ± 3.12 % |  |  | 27.92 ± 4.51 % |  | 
